According to patent US8674110B2, “Pyridylacetylenes for use as radiotracers and imaging agents” (Novartis AG, priority 2003, dated 2014):
Where “and” joins values, the source holds several entries; their conditions need not be identical. Identical values can stand only once.

Experiments:
[1] = target: T1, human mGlu5 receptor (Homo sapiens, UniProt P41594); test: Ki/IC50 determination (binding assay), radioligand displacement
T1 construct: expressed in transfected cells
Protocol: In vitro, the affinity for the mGlu5 receptor is determined using a radioligand displacement technique as described by Gasparini et al, Biorg. Med. Chem. Lett. 2002, 12, 407-409.

[2] = target: T2, mGlu5 receptors (Rattus norvegicus, UniProt P31424); test: Organ and brain structure distribution (biodistribution) with and without blockade; type: in vivo, Sprague-Dawley rats; conditions: 30 min post-injection, individual values
T2 construct: from tissue; host or cells: rat brain regions and organs (in vivo tracer distribution)
Protocol: Two groups of male adult Sprague-Dawley rats weighing 250-300 g are used for the biodistribution studies. The first group (n=3) serves as the control group and the second group (n=3) serves as the blockade group. Each animal received 250-300 pmol (0.6-40 MBq) of 3-(6-methyl-pyridin-2-ylethynyl)-cyclohex-2-enone O-[^11C-methyl]oxime via a lateral tail vein. The blockade group is co-injected with 2-methyl-6-((3-methoxyphenyl)ethynyl)-pyridine (1 mg/kg) whereas the control group (n=3) receives a corresponding volume of 0.9% NaCl. The animals are sacrificed 30 min post-injection. Organ or brain regions such as hippocampus, striatum, cortex and cerebellum are removed and measured in a gamma-counter. The tissue distribution is expressed as percentage of injected dose per gram wet tissue (% ID/g organ).
K1, K2, K3 are individual values for control animals. B1, B2, B3 are individual values for animals co-injected with 2-methyl-6-((3-methoxyphenyl)ethynyl)-pyridine.

[3] = blockade animals B1-B3 co-injected with 2-methyl-6-((3-methoxyphenyl)ethynyl)-pyridine 1 mg/kg
[4] = control animals K1-K3 (0.9% NaCl), i.v. tail vein

T1 sequence (P41594 21-1180 isoform P41594-2 limits assumed): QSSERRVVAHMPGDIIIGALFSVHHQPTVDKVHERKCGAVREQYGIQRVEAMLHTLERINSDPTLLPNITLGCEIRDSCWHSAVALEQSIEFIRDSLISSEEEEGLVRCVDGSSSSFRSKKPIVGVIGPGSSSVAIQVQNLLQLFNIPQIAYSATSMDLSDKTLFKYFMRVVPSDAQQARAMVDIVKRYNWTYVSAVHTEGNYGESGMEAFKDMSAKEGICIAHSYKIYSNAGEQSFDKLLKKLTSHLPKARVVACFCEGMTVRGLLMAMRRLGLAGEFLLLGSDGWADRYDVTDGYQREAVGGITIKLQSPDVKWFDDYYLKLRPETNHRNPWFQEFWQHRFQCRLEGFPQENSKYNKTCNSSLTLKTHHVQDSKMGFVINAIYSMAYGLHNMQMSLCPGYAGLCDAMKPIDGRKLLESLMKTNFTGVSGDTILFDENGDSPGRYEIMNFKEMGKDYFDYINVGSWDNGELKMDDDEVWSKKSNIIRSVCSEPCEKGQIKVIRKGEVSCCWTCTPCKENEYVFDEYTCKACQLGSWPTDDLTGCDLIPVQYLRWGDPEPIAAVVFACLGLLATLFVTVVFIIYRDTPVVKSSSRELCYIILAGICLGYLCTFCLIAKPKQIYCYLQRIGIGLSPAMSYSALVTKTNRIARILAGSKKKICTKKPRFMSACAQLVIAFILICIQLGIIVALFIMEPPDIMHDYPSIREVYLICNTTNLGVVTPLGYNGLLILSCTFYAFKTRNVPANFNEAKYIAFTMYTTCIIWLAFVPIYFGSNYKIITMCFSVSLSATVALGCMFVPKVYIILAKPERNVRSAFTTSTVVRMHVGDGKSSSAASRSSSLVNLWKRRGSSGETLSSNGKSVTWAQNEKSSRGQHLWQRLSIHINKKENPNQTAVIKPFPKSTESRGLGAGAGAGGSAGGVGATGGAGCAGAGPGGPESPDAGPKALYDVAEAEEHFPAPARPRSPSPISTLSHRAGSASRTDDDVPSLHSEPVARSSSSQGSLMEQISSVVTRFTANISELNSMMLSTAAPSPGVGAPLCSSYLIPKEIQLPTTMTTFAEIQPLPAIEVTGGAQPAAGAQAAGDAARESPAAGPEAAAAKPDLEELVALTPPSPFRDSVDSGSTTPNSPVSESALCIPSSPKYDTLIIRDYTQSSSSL
T2 sequence (P31424 21-1203): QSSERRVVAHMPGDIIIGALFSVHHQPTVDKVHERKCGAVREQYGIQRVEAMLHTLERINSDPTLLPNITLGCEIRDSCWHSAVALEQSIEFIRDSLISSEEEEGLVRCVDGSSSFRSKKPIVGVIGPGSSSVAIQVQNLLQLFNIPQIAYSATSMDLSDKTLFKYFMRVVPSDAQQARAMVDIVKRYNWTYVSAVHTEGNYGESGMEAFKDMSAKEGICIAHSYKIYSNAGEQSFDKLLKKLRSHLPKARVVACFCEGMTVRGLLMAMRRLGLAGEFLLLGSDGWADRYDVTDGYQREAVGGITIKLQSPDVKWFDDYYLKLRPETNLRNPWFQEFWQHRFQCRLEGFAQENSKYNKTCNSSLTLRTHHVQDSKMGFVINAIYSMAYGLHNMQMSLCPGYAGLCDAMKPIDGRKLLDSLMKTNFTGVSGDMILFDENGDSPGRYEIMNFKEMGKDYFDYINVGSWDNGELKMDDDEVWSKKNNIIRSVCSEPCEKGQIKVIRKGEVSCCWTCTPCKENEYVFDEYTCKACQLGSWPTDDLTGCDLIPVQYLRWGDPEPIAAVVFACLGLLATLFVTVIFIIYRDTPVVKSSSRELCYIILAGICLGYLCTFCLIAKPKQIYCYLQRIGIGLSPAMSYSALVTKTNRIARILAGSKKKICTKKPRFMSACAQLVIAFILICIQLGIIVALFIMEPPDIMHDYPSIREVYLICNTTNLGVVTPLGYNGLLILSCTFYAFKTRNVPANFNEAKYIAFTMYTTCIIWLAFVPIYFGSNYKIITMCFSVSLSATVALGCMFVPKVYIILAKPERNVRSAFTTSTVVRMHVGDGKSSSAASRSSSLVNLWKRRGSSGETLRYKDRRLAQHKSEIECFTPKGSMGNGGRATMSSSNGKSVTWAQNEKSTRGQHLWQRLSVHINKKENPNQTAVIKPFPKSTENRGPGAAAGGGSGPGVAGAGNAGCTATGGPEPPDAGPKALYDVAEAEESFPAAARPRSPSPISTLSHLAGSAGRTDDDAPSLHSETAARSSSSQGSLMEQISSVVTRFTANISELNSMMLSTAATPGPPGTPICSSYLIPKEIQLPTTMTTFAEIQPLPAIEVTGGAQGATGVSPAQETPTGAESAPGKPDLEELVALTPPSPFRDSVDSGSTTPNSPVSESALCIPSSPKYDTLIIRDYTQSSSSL

| Compound | Ki ([1]; calculated using the Cheng-Prusoff equation, radioligand concentration 2 nM) | Hill coefficient ([1]; displacement of [3H]-2-methyl-6-((3-methoxyphenyl)ethynyl)-pyridine, L-tk cell membranes, human mGlu5) | IC50 ([1]; membrane of L-tk cells stably expressing the human mGlu5 receptor, 95% confidence intervals: 6.0-10.0 nM, read-out: IC50 for the displacement of [3H]-2-methyl-6-((3-methoxyphenyl)ethynyl)-pyridine) | percentage of injected dose per gram wet tissue, Cerebellum [2, 3] | percentage of injected dose per gram wet tissue, Cortex [2, 3] | percentage of injected dose per gram wet tissue, Hippocampus [2, 3] | percentage of injected dose per gram wet tissue, Midbrain [2, 3] | percentage of injected dose per gram wet tissue, Restbrain [2, 3] | percentage of injected dose per gram wet tissue, Striatum [2, 3] | percentage of injected dose per gram wet tissue, Whole brain [2, 3] | percentage of injected dose per gram wet tissue, Cerebellum [2, 4] | percentage of injected dose per gram wet tissue, Cortex [2, 4] | percentage of injected dose per gram wet tissue, Hippocampus [2, 4] | percentage of injected dose per gram wet tissue, Midbrain [2, 4] | percentage of injected dose per gram wet tissue, Restbrain [2, 4] | percentage of injected dose per gram wet tissue, Striatum [2, 4] | percentage of injected dose per gram wet tissue, Whole brain [2, 4] |
| --- | --- | --- | --- | --- | --- | --- | --- | --- | --- | --- | --- | --- | --- | --- | --- | --- | --- |
| CON=C1C=C(C#Cc2cccc(C)n2)CCC1 [3-(6-methyl-pyridin-2-ylethynyl)-cyclohex-2-enone O-methyl-oxime] | 4 nM | 1.08 | 8 nM |  |  |  |  |  |  |  |  |  |  |  |  |  |  |
| Cc1cccc(C#CC2=CC(=NO[11CH3])CCC2)n1 [Example 1, 3-(6-Methyl-pyridin-2-ylethynyl)-cyclohex-2-enone O-[^11C-methyl]-oxime] |  |  |  | 0.04052 % ID/g organ and 0.03608 % ID/g organ and 0.03421 % ID/g organ | 0.04964 % ID/g organ and 0.05582 % ID/g organ and 0.05431 % ID/g organ | 0.05184 % ID/g organ and 0.06195 % ID/g organ and 0.05972 % ID/g organ | 0.03876 % ID/g organ and 0.047 % ID/g organ and 0.04422 % ID/g organ | 0.03832 % ID/g organ and 0.04762 % ID/g organ and 0.04383 % ID/g organ | 0.06495 % ID/g organ and 0.07158 % ID/g organ and 0.06487 % ID/g organ | 0.0458 % ID/g organ and 0.05118 % ID/g organ and 0.04951 % ID/g organ | 0.03322 % ID/g organ and 0.03925 % ID/g organ and 0.03699 % ID/g organ | 0.1485 % ID/g organ and 0.1832 % ID/g organ and 0.1691 % ID/g organ | 0.1615 % ID/g organ and 0.2544 % ID/g organ and 0.2126 % ID/g organ | 0.07703 % ID/g organ and 0.1056 % ID/g organ and 0.09091 % ID/g organ | 0.05519 % ID/g organ and 0.0652 % ID/g organ and 0.0607 % ID/g organ | 0.2256 % ID/g organ and 0.3069 % ID/g organ and 0.2816 % ID/g organ | 0.1112 % ID/g organ and 0.1366 % ID/g organ and 0.13 % ID/g organ |
